Data reported in a melting point compilation (Tetko et al.).

melting point | Compound
74 to 76 °C | NCCNS(=O)(=O)c1ccccc1
155 to 159 °C | Nc1nc(-c2ccc[nH]2)cs1
56 to 58 °C | CN(Cc1ccccc1)c1ccc([N+](=O)[O-])cn1
149 to 151 °C | CC(=O)c1cc2ccccc2[nH]1
82 to 84 °C | S=c1[nH][nH]c(=NCCc2cccs2)s1
57 to 59 °C | O=C(CBr)c1ccc2c(c1)CCC2
129 to 131 °C | O=C(O)c1ccccc1NCCC1=CCCCC1
169 to 171 °C | COc1ccc(Oc2ccc(S(N)(=O)=O)cc2)cc1
62 to 66 °C | O=C(NCc1ccccc1)OCC(F)(F)F
186 to 188 °C | O=C(O)c1cnn(-c2ccccn2)c1
105 to 107 °C | O=C(O)C1(c2ccccc2)CCC1
211 to 213 °C | Cc1cn2c(CC(=O)O)csc2n1
274 to 276 °C | O=c1[nH]nc(-c2ccc(Cl)c(Cl)c2)c2ccccc12
109 to 111 °C | Cc1[nH]n(C)c(=N)c1C
143 to 145 °C | Nc1cccc([N+](=O)[O-])c1C(=O)O
63 to 65 °C | O=[N+]([O-])c1cc(Cl)ccc1I
279 to 281 °C | O=C(O)c1ccc(-n2ccnn2)cc1
30 to 32 °C | CCC(=O)c1ccccc1OC(F)F
287 to 289 °C | O=C(O)c1ccc(S(=O)(=O)N2CCOCC2)cc1
135 to 137 °C | OC1CCN(c2nncc3ccccc23)CC1
51 to 53 °C | Nc1cccnc1OCc1ccccc1
117 to 119 °C | OCc1ncc(-c2ccccc2)o1
170 to 172 °C | Nc1ccncc1C(=O)C(F)(F)F

melting point | Compound
236 to 238 °C | CS(=O)(=O)c1cc(C(=O)O)ccc1Br
129 to 131 °C | O=C(O)C1CC2CCCC(C1)C2=O (stereo not drawn)
68 to 70 °C | NCc1nc2cc(Cl)ccc2s1
147 to 149 °C | Nc1cccc2c1C(=O)N(Cc1ccccc1)C2=O
55 to 57 °C | Fc1cccc(-c2nc(CCl)co2)c1
157 to 159 °C | CC(C)(C)C(=O)Nc1ccccc1C(=O)O
78 to 80 °C | CCn1ccnc1S
117 to 119 °C | ClCc1cc2c(cc1Br)OCCO2
94 to 96 °C | CC(=O)c1ccc(OCC(=O)Nc2ccccc2)cc1
141 to 143 °C | O=C(O)C1CCN(c2ccc(C(F)(F)F)cc2[N+](=O)[O-])CC1
153 to 155 °C | O=C(O)Cn1cc([N+](=O)[O-])cn1
189 to 191 °C | CCOc1ccc(C(=O)N2CCCC(C(=O)O)C2)cc1OCC (stereo not drawn)
180 to 182 °C | Cc1cc(-c2nnc3ccccn23)ccc1N
173 to 175 °C | O=C(O)C1CCN(Cc2ccc(Cl)s2)CC1
131 to 133 °C | COC(=O)NC1(C(=O)O)CCCC1
109 to 111 °C | C=CCN(c1ccc(OC)cc1)S(=O)(=O)c1ccc(Cl)c(C(=O)O)c1
79 to 81 °C | Cc1[nH]c2ccccc2c1CC#N
79 to 81 °C | Nc1ccc(OCc2cccnc2)cc1
183 to 185 °C | O=C(O)c1ccccc1Sc1ccc(Br)cn1
192 to 194 °C | Cc1ccc(-c2csc(S)n2)cc1
97 to 99 °C | O=C(c1ccc(S(=O)(=O)Cl)cc1)N1CCCCC1
204 to 206 °C | COc1ccc(-c2nc(C(=O)O)cs2)cc1OC
106 to 108 °C | CC(C)(C(O)c1ccc(Br)cc1)[N+](=O)[O-] (stereo not drawn)

melting point | Compound
126 to 128 °C | CCOC(=O)c1cc(N2CCNC(=O)C2)ccc1N
110 to 112 °C | Cc1ccc(N2C(=O)NC(=O)C2C)cc1 (stereo not drawn)
204 to 206 °C | Cc1ccc(C(=O)O)c(O)c1O
141 to 143 °C | O=C(O)C1Cc2ccccc2CN1C(=O)c1ccccc1 (stereo not drawn)
112 to 114 °C | O=C1N(Cc2ccccc2)CCN1S(=O)(=O)Cl
118 to 120 °C | Cc1cc(CC(=O)O)c(C)n1-c1ccc(Cl)cc1
131 to 133 °C | CC(C)(C)OC(=O)N1CCN(c2ccc(N)nc2)CC1
176 to 178 °C | CC(C)C(NC(=O)c1ccccc1)c1nn[nH]n1 (stereo not drawn)
134 to 136 °C | O=C(O)C1CCN(c2ncc(C(F)(F)F)cc2Cl)CC1
272 to 274 °C | Cc1c(C(=O)O)oc2c(Cl)cc(Br)cc12
109 to 111 °C | Cc1nnnn1-c1cc(N)ccc1F
151 to 153 °C | COCCOc1ccc(C(=O)O)cc1
64 to 66 °C | NC1(C(=O)NCC2CC2)CCCC1
151 to 153 °C | Nc1nc(-c2cccc(O)c2)cs1
140 to 142 °C | CC(=O)c1ccc(S(=O)(=O)NCCCC(=O)O)cc1
178 to 180 °C | O=C(CCl)Nc1c(Cl)cccc1Cl
114 to 116 °C | CC(=O)N1CCN(CCC(=O)O)CC1
62 to 64 °C | CC(=O)c1ccc(C#N)c(F)c1
82 to 84 °C | COc1ccc(C(C)=O)cc1Br
189 to 191 °C | O=c1[nH]c(-c2cccc(Oc3ccccc3)c2)no1
195 to 197 °C | COc1cc(NC(=O)Cc2cccs2)c(C(=O)O)cc1OC
169 to 171 °C | Nc1cnn(-c2cnc3ccccc3n2)c1
59 to 61 °C | N#Cc1ccc(S)c(F)c1

melting point | Compound
206 to 208 °C | Cc1nn(-c2ccccc2)c(C(F)F)c1C(=O)O
230 to 232 °C | O=C(O)CCCNC(=O)c1ccc2[nH]nnc2c1
164 to 166 °C | CNS(=O)(=O)c1ccc(-c2cccs2)c(C(=O)O)c1
159 to 161 °C | COC(=O)c1c[nH]c2cccc(F)c12
182 to 184 °C | N#Cc1ccccc1OCC(=O)O
208 to 210 °C | Cc1cc2c(cc1Br)NC(=O)C(C)O2 (stereo not drawn)
196 to 198 °C | Nc1ccc(Oc2ccc(S(N)(=O)=O)cc2)cc1
116 to 118 °C | O=C(O)CCCOc1cccc2ccccc12
176 to 178 °C | O=C(Nc1ccc(O)cc1C(=O)O)OCc1ccccc1
192 to 194 °C | CSc1cc(C(=O)O)c(Cl)cc1Cl
89 to 91 °C | NCCNS(=O)(=O)Cc1ccon1
139 to 141 °C | CCc1nn(C)c(Cl)c1C(=O)O
129 to 131 °C | Nc1ccc(CN2C(=O)Cc3ccc(Cl)cc32)cc1
130 to 132 °C | O=C(O)CCC(=O)N1CCc2sccc2C1
192 to 194 °C | NNC(=O)Nc1ccc(C(=O)O)cc1
229 to 231 °C | COc1ccc(CC(=O)NCc2ccc(C(=O)O)cc2)cc1
99 to 101 °C | O=C(NC1CCCCCC1)c1ccco1
192 to 195 °C | O=C(O)c1ccc(=O)n(Cc2ccccc2)n1
68 to 70 °C | COc1ccc(C=O)cc1OCC1CC1
92 to 94 °C | Cc1ccccc1OCCC(=O)O
158 to 160 °C | Cc1nnc(-c2ccccc2C(=O)O)o1
129 to 131 °C | Cc1cc2nc(-c3cccc4ncccc34)[nH]c2cc1C
134 to 136 °C | O=C(O)c1cn(-c2ccc(C(F)(F)F)cn2)nn1

melting point | Compound
103 to 105 °C | CN1CCN(S(=O)(=O)c2cccc(Br)c2)CC1
60 to 62 °C | C#CCNS(=O)(=O)c1ccccc1
149 to 151 °C | NNC(=O)c1cc(F)ccc1Br
239 to 241 °C | Cc1nc2c(c(C)c1CC(=O)O)c(=O)[nH]n2C
235 to 237 °C | O=C(O)c1cnc(-c2ccc(Cl)s2)s1
139 to 141 °C | O=C(O)CCc1cn(Cc2ccc(Cl)cc2)c2ccccc12
153 to 155 °C | O=C(O)C1Cc2ccccc2CN1C(=O)CCl (stereo not drawn)
133 to 135 °C | O=C(O)c1nnn(-c2ccccc2F)c1C(F)(F)F
118 to 120 °C | CCc1ccc(O)c(C(=O)O)c1
73 to 75 °C | COCC(C)NC(N)=O (stereo not drawn)
179 to 181 °C | CN(c1cc(C(=O)O)ccn1)C1CCCC1
147 to 149 °C | COC(=O)c1ccc(NS(C)(=O)=O)cc1
194 to 196 °C | O=C(Cn1cnnn1)Nc1ccccc1C(=O)O
199 to 201 °C | Cc1ccc(-n2[nH]c(C(=O)O)c(CCO)c2=O)cc1
96 to 98 °C | O=C(c1ccccn1)c1cc2ccccc2o1
115 to 117 °C | NC(=S)C1CCCCC1
118 to 120 °C | Cn1ccnc(Cl)c1=O
124 to 126 °C | O=C(Nc1ccccc1)C1CCc2ccccc2N1 (stereo not drawn)
111 to 113 °C | O=C(O)Cn1nnc(COc2ccccc2)n1
61 to 63 °C | CCOC(=O)CN(CCC#N)c1ccc(OC)cc1
207 to 209 °C | Cn1ccnc1C(O)C1CCNCC1 (stereo not drawn)
139 to 141 °C | Cc1c(C(=O)O)cc(Br)cc1S(=O)(=O)Cl
153 to 155 °C | Nc1ccc(Nc2ccc(F)cc2)c2ccncc12

melting point | Compound
199 to 201 °C | O=C(O)c1ccccc1COc1ccccc1C(=O)O
174 to 176 °C | Nc1ccc(Cc2nnn[nH]2)cc1
113 to 115 °C | N#Cc1cc(C(F)(F)F)ccc1C(=O)O
224 to 226 °C | O=C1CN(/C=C/c2ccccc2)C(=O)N1
78 to 80 °C | COc1cc2c(cc1C=O)OC(C)C2 (stereo not drawn)
55 to 57 °C | OCc1cnn(Cc2ccccc2)c1
83 to 85 °C | CCCN1CCCC1C(=O)O (stereo not drawn)
176 to 178 °C | Cn1ncnc1COc1ccc(S(N)(=O)=O)cc1
108 to 110 °C | O=C(O)c1ccccc1OCc1cccc(Br)c1
130 to 132 °C | CCOc1cccnc1C(=O)O
151 to 153 °C | Cc1cc(CC(=O)NN)[nH]n1
179 to 181 °C | Cc1cc(N)cc2[nH]ncc12
164 to 166 °C | Cc1cnn(-c2ccc(C(N)=O)cc2N)c1
34 to 36 °C | OCc1cnns1
135 to 137 °C | CCOC(=O)c1csc(Cc2ccc(NC(=O)OC(C)(C)C)cc2)n1
94 to 96 °C | CC(C#N)NC(=O)OC(C)(C)C (stereo not drawn)
158 to 160 °C | Nc1ccc(-n2ncc3ccccc32)cc1
72 to 74 °C | CCOC(=O)Cn1[nH]cc(C(=O)OCC)c1=N
43 to 45 °C | CS(=O)(=O)c1cccs1
148 to 150 °C | O=C(O)c1cccc(F)c1I
61 to 63 °C | CCCNC(=S)NN

Compound | melting point
CCOC(=O)c1cc2c(nc1N)CCN(C)C2 | 146 to 148 °C
Cc1ccnc2[nH]c(CCl)nc12 | 274 to 276 °C
CCCc1cc(O)c2ccccc2n1 | 168 to 170 °C
CCc1cccc2c(C3CCNCC3)c[nH]c12 | 183 to 185 °C
Cc1nn(C2CCOC2)cc1C(=O)O (stereo not drawn) | 163 to 165 °C
N#CCCn1cc(C(=O)O)c(-c2ccc([N+](=O)[O-])cc2)n1 | 220 to 222 °C
Nc1ccc(CCN2CCSCC2)cc1 | 88 to 90 °C
